target: T1, butyrylcholinesterase (BuChE) (Equus caballus, UniProt P81908); experiment: biochemical; settings: not given
T1 construct: butyrylcholinesterase (E.C. 3.1.1.8) from equine serum; purchased Sigma–Aldrich (Steinheim, Germany); host or cells: equine serum
Description: Acetylcholinesterase (E.C.3.1.1.7) (Type VI-S from electric eel and recombinant human enzyme) and butyrylcholinesterase (E.C. 3.1.1.8) from equine serum were purchased from Sigma–Aldrich (Steinheim, Germany). All of the materials used in the synthesis were purchased from Merck or Sigma–Aldrich (St. Louis, MO, USA) (Darmstadt, Germany). The ^1H NMR and ^13C NMR spectra in DMSO-d6 were recorded using a Bruker operating at 600 and 150 MHz digital FT-NMR spectrometer (Billerica, MA, USA, Bioscience, Bruker). The NMR spectra’s splitting patterns were recognized and categorized as doublet (d), singlet (s), double doublet (dd), multiplet (m) and triplet (t). In hertz, the coupling constants (J) are given (Hz). Mass spectra were captured on a Shimadzu LCMS-IT-TOF system (Kyoto, Japan) using the electrospray ionization (ESI) method. Using thin-layer chromatography and silica gel 60 F254 to test the purity of synthesized compounds (Darmstadt, Germany, Merck, KGaA).
The inhibition of AChE and BChE was determined using a method described earlier. Briefly, the stock solutions (1 mg/mL) of test analogues were prepared using DMSO. The working solutions (1–100 µg/mL) were prepared using serial dilutions (a serial dilution means a series of diluted solutions, e.g., 0.1 mg/mL, 0.2 mg/mL and so on; the solutions contained 5% DMSO and 95% water). The various concentrations of test compounds (10 µL) were pre-incubated with sodium phosphate buffer (0.1 M; pH 8.0; 150 µL) and AChE (0.1 U/mL; 20 µL) for 15 min at 25 °C. The reaction was initiated via the addition of DTNB (1 mM; 10 µL) and […] (1 mM; 10 µL). The mixture of reaction was mixed using a cyclomixer and incubated for 10 min at 25 °C. The absorbance was measured using a microplate reader at a 410 nm wavelength against the blank reading containing 10 µL DMSO instead of the test compound (the solution contained 5% DMSO and 95% water).

T1 sequence (P81908 whole entry): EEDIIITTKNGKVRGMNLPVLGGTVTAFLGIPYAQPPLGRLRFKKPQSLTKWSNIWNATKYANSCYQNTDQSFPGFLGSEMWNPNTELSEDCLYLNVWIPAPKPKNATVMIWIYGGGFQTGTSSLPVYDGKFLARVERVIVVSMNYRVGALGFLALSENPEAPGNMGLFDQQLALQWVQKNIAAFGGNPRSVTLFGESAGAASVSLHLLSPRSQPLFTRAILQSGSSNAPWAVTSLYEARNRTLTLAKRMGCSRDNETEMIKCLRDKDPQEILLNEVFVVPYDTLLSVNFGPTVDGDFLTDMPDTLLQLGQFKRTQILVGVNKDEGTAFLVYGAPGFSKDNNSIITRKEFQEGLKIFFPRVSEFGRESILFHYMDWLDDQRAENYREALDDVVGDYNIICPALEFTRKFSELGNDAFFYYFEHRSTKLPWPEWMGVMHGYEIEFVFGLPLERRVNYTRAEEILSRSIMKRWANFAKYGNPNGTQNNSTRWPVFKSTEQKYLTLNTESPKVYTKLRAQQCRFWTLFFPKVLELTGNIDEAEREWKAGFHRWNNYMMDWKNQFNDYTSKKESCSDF

| Structure (SMILES) | IC50 |
| --- | --- |
| O=[N+]([O-])c1ccc(-c2nnc(/N=C(/CSc3nc4ccccc4o3)c3cccc([N+](=O)[O-])c3)o2)cc1 [Compound 1, (E)-2-(Benzo[d]oxazol-2-ylthio)-1-(3-nitrophenyl)-N-(5-(4-nitrophenyl)-1,3,4-oxadiazol-2-yl)ethan-1-imine] | 8.9 ± 1.8 µM |
| O=[N+]([O-])c1cccc(/C(CSc2nc3ccccc3o2)=N\c2nnc(-c3cccc([N+](=O)[O-])c3)o2)c1 [Compound 2, (E)-2-(Benzo[d]oxazol-2-ylthio)-1-(3-nitrophenyl)-N-(5-(3-nitrophenyl)-1,3,4-oxadiazol-2-yl)ethan-1-imine] | 7.5 ± 1.2 µM |

same assay, conditions: read-out: BuChE Inhibition IC50 ± SEM

| Structure (SMILES) | IC50 |
| --- | --- |
| O=[N+]([O-])c1cccc(/C(CSc2nc3ccccc3o2)=N\c2nnc(-c3ccc(Cl)cc3Cl)o2)c1 [Compound 3, (E)-2-(Benzo[d]oxazol-2-ylthio)-N-(5-(2,4-dichlorophenyl)-1,3,4-oxadiazol-2-yl)-1-(3-nitrophenyl)ethan-1-imine] | 9.2 ± 1.9 µM |
| O=[N+]([O-])c1cccc(/C(CSc2nc3ccccc3o2)=N\c2nnc(-c3ccc(Cl)cc3)o2)c1 [Compound 4, (E)-2-(Benzo[d]oxazol-2-ylthio)-N-(5-(4-chlorophenyl)-1,3,4-oxadiazol-2-yl)-1-(3-nitrophenyl)ethan-1-imine] | 11.9 ± 1.1 µM |
| CN(C)c1ccc(-c2nnc(/N=C(/CSc3nc4ccccc4o3)c3cccc([N+](=O)[O-])c3)o2)cc1 [Compound 5, (E)-4-(5-((2-(Benzo[d]oxazol-2-ylthio)-1-(3-nitrophenyl)ethylidene)amino)-1,3,4-oxadiazol-2-yl)-N,N-dimethylaniline] | 16.6 ± 2.5 µM |
| Cc1ccc(/C(CSc2nc3ccccc3o2)=N\c2nnc(-c3ccc(OCc4ccccc4)cc3)o2)cc1 [Compound 6, (E)-2-(Benzo[d]oxazol-2-ylthio)-N-(5-(4-(benzyloxy)phenyl)-1,3,4-oxadiazol-2-yl)-1-(p-tolyl)ethan-1-imine] | 28.6 ± 3.8 µM |
| Cc1ccc(/C(CSc2nc3ccccc3o2)=N\c2nnc(-c3cccc([N+](=O)[O-])c3)o2)cc1 [Compound 7, (E)-2-(Benzo[d]oxazol-2-ylthio)-N-(5-(3-nitrophenyl)-1,3,4-oxadiazol-2-yl)-1-(p-tolyl)ethan-1-imine] | 15.8 ± 3.1 µM |
| Cc1ccc(/C(CSc2nc3ccccc3o2)=N\c2nnc(-c3ccc(N(C)C)cc3)o2)cc1 [Compound 8, (E)-4-(5-((2-(Benzo[d]oxazol-2-ylthio)-1-(p-tolyl)ethylidene)amino)-1,3,4-oxadiazol-2-yl)-N,N-dimethylaniline] | 24.6 ± 3.8 µM |
| Cc1ccc(/C(CSc2nc3ccccc3o2)=N\c2nnc(-c3ccc(Cl)cc3Cl)o2)cc1 [Compound 9, (E)-2-(Benzo[d]oxazol-2-ylthio)-N-(5-(2,4-dichlorophenyl)-1,3,4-oxadiazol-2-yl)-1-(p-tolyl)ethan-1-imine] | 14.8 ± 2.7 µM |
| Cc1ccc(/C(CSc2nc3ccccc3o2)=N\c2nnc(-c3ccc([N+](=O)[O-])cc3)o2)cc1 [Compound 10, (E)-2-(Benzo[d]oxazol-2-ylthio)-N-(5-(4-nitrophenyl)-1,3,4-oxadiazol-2-yl)-1-(p-tolyl)ethan-1-imine] | 18.5 ± 1.9 µM |
| Cc1ccc(/C(CSc2nc3ccccc3o2)=N\c2nnc(-c3ccc(Cl)cc3)o2)cc1 [Compound 11, (E)-2-(Benzo[d]oxazol-2-ylthio)-N-(5-(4-chlorophenyl)-1,3,4-oxadiazol-2-yl)-1-(p-tolyl)ethan-1-imine] | 12.3 ± 1.5 µM |
| Cc1ccc(/C(CSc2nc3ccccc3o2)=N\c2nnc(-c3ccc(C=O)cc3)o2)cc1 [Compound 12, (E)-4-(5-((2-(Benzo[d]oxazol-2-ylthio)-1-(p-tolyl)ethylidene)amino)-1,3,4-oxadiazol-2-yl)benzaldehyde] | 28.7 ± 3.9 µM |
| Cc1cccc(/C(CSc2nc3ccccc3o2)=N\c2nnc(-c3ccc(OCc4ccccc4)cc3)o2)c1 [Compound 13, (E)-2-(Benzo[d]oxazol-2-ylthio)-N-(5-(4-(benzyloxy)phenyl)-1,3,4-oxadiazol-2-yl)-1-(m-tolyl)ethan-1-imine] | 31.5 ± 4.9 µM |
| Cc1ccc(/C(CSc2nc3ccccc3o2)=N\c2nnc(-c3ccc4ccccc4c3)o2)cc1 [Compound 14, (E)-2-(Benzo[d]oxazol-2-ylthio)-N-(5-(naphthalen-2-yl)-1,3,4-oxadiazol-2-yl)-1-(p-tolyl)ethan-1-imine] | 42.6 ± 6.1 µM |
| Clc1ccc(/C(CSc2nc3ccccc3o2)=N\c2nnc(-c3ccc(Cl)c(Cl)c3)o2)cc1Cl [Compound 15, (E)-2-(Benzo[d]oxazol-2-ylthio)-1-(3,4-dichlorophenyl)-N-(5-(3,4-dichlorophenyl)-1,3,4-oxadiazol-2-yl)ethan-1-imine] | 7.2 ± 2.3 µM |
| O=[N+]([O-])c1cccc(-c2nnc(/N=C(/CSc3nc4ccccc4o3)c3ccc(Cl)c(Cl)c3)o2)c1 [Compound 16, (E)-2-(Benzo[d]oxazol-2-ylthio)-1-(3,4-dichlorophenyl)-N-(5-(3-nitrophenyl)-1,3,4-oxadiazol-2-yl)ethan-1-imine] | 7.6 ± 2.1 µM |
| Clc1ccc(-c2nnc(/N=C(/CSc3nc4ccccc4o3)c3ccc(Cl)c(Cl)c3)o2)cc1 [Compound 17, (E)-2-(Benzo[d]oxazol-2-ylthio)-N-(5-(4-chlorophenyl)-1,3,4-oxadiazol-2-yl)-1-(3,4-dichlorophenyl)ethan-1-imine] | 13.3 ± 3.2 µM |
| CN(C)c1ccc(-c2nnc(/N=C(/CSc3nc4ccccc4o3)c3ccc(Cl)c(Cl)c3)o2)cc1 [Compound 18, (E)-4-(5-((2-(Benzo[d]oxazol-2-ylthio)-1-(3,4-dichlorophenyl)ethylidene)amino)-1,3,4-oxadiazol-2-yl)-N,N-dimethylaniline] | 18.3 ± 3.2 µM |
| O=[N+]([O-])c1ccc(-c2nnc(/N=C(/CSc3nc4ccccc4o3)c3ccc(Cl)c(Cl)c3)o2)cc1 [Compound 19, (E)-2-(Benzo[d]oxazol-2-ylthio)-1-(3,4-dichlorophenyl)-N-(5-(4-nitrophenyl)-1,3,4-oxadiazol-2-yl)ethan-1-imine] | 9.8 ± 2.3 µM |
